Results published in patent US20050228041A1, “Protective and therapeutic uses for tocotrienols” (priority 2003, published 2005).
Entries after “also recorded” stand apart in the source; their conditions may differ.

Legend:
[1] = test system: primary rat immature cortical neurons; assay: Neurotoxin-induced loss of viability of primary immature cortical neurons (LDH leakage); format: cell-based; details: 24 h
Method: (§1) Referring to FIG. 1, primary rat immature cortical neurons (A-C) or HT4 (D) were either treated or not with α-tocotrienol (as indicated) for 5 min and challenged with either glutamate (10 mM; A); L-homocysteic acid (1 mM; B); or buthionine sulfoximine (0.15 mM; BSO) for 24 h. […] Cells were counted at 12, 24 and 36 h after glutamate challenge.
(§2) First, we tested for the involvement of 12-LOX in the execution of glutamate-induced death in our model. We started by using the 12-LOX specific inhibitor baicalein or BL15. Referring to FIG. 3, HT4 neurons (A) were either treated or not with a-tocotrienol (250 nM) or […] (2.5 μM, 12-lipoxygenase inhibitor) for 5 min and then challenged with glutamate (10 mM). Cell viability was determined using propidium iodide (PI) exclusion flow cytometry assay. PI−=live; PI+=dead. Rat primary immature cortical neurons (B-D) were either treated or not with α-tocotrienol (100 nM) or BL15 (2.5 μM) for 5 min and challenged either with glutamate (10 mM; B); L-homocysteic acid (1 mM; C) or buthionine sulfoximine (0.15 mM; BSO; D) for 24 h. Arachidonic acid, 50 μM for 24h. BL15, Baicalein 5,6,7-trihydroxy-flavone.
(§3) Cell culture. Mouse hippocampal HT4 cells, were grown in Dulbecco's Modified Eagle Medium supplemented with 10% fetal calf serum, penicillin (100 U/ml) and streptomycin (100 μg/ml) at 37° C. in a humidified atmosphere containing 95% air and 5% CO2. HT4 cells were provided by Dr. D. E. Koshland Jr. (University of California at Berkeley) (Sen et al., 2000). Primary cortical neurons. Cells were isolated from the cerebral cortex of rat feti (Sprague Dawley; day 17 of gestation) or mouse feti (C57BL/6 mice, day 14 of gestation) as described (Murphy et al., 1990). For 12-LOX knockout studies, neurons were isolated from the feti of B6.129S2-Alox15^tm1Fun (Jackson Laboratory, […].). After isolation from the brain, cells were counted and seeded in culture plates at a density of 2-3×10^6 cells per 35 mm plate (Murphy et al., 1990). Cells were grown in Minimal Essential Medium (MEM) supplemented with 10% heat-inactivated fetal bovine serum, 40 μM cystine and antibiotics (100 μg/ml streptomycin, 100 units/ml penicillin, 0.25 μg/ml amphotericin). Cultures were maintained at 37° C. in 5% CO2 and 95% air in a humidified incubator. All experiments were carried out 24 h after plating.
(§4) Treatment with neurotoxic agents. Immediately before experiments, culture media was replaced with fresh medium supplemented with serum and antibiotics. Glutamate (10 mM) was added to the media as aqueous solution (Han et al., 1997a; Sen et al., 2000; Tirosh et al., 2000). […] Other agents used to induce death in neuronal cells have been described in the pertinent figure legends.
(§5) Vitamin E treatment. Stock solutions (10^3X of working concentration) of α-tocotrienol was prepared in ethanol. […]
(§6) Determination of cell viability. Viability of HT4 cells was determined using propidium iodide exclusion assay using the flow cytometer as described by us previously (Sen et al., 2000; Tirosh et al., 2000). Because primary neuronal cultures tend to aggregate during flow cytometry, the viability of these cells was assessed by measuring lactate dehydrogenase (LDH) leakage (Han et al., 1997a) from cells to media 24 h following glutamate treatment using in vitro toxicology assay kit from Sigma Chemical Co. (St. Louis, Mo., USA). […]

HT4 neurons = assay: Glutamate-induced death of HT4 neurons (propidium iodide exclusion flow cytometry, cell counts); format: cell-based, mouse
Method: as §1, §2, §3, §4, §5, §6

[2] = test system: rat primary cortical neurons; assay: Imaging of glutamate-induced degeneration of rat primary cortical neurons (immunofluorescence, live cell imaging); format: cell-based; details: glutamate 10 mM; α-tocotrienol 250 nM or BL15 2.5 μM 5 min before
Method: Phase contrast images were collected once every 15 mins for 18 h from 8 h after glutamate treatment.
For immunofluorescence microscopy, primary cultures of rat cortical neurons were plated on 35 mm plates pre-coated with poly-L-lysine. After 24 h, cell were treated with α-tocotrienol or BL15 for 5 minutes and then challenged with glutamate or exposed to glutamate. After 24 h of glutamate exposure, cells were washed thrice in PBS, fixed for 10 minutes at room temperature in 4% paraformaldehyde, and permeabilized with PBS-T (PBS containing 0.2% Triton X-100) for 20 minutes at room temperature. Samples were then rinsed 3× with PBS-T and blocking (2% BSA in PBS-T) was done for 1 h at room temperature. After blocking, samples were incubated overnight at 4° C. with the primary antibody (anti-neurofilament 200 (1:100, Sigma St. Louis, Mo.) or neuronal class III α-tubulin (1:500, Covance Berkeley, Calif.)}. After washing with PBS (3×, 5 min each), the samples were incubated with Alexa Fluor 488 conjugated goat anti-mouse or anti-rabbit (Molecular Probes Eugene, Oreg.) secondary antibody for 45 minutes at room temperature. This was followed by three PBS washes, and mounting in aqueous medium. Fluorescent images were collected using a Zeiss Axiovert 200M microscope. Images were acquired using Axiovision 3.1.
For live cell imaging, primary cultures of rat cortical neurons were plated on 35 mm plates pre-coated with poly-L-lysine. […] Images were collected once every 15 minutes using a specialized phase contrast Zeiss optics suited for imaging cells growing in routine culture plates.

primary neurons = assay: Cellular glutathione (GSH) in glutamate-treated primary neurons (HPLC-coulometric); format: cell-based, rat; details: glutamate 10 mM; α-tocotrienol 100 nM or BL15 2.5 μM
Method: as §2, with “5,6,7-trihydroxy-flavone. […] B-E: †, lower compared to the corresponding control non-treated group; *, higher compared to the corresponding toxin-treated group. P<0.05.” for “5,6,7-trihydroxy-flavone.”
Glutathione assay. Glutathione (GSH) was detected using a HPLC-coulometric electrode array detector (Coularray Detector—model 5600 with 12 channels; ESA Inc., Chelmsford, Mass.). […] Glutathione was detected at channels set at following potentials: I) 600 mV, II) 700 mV; and II) 800 mV. Signals from channel set at 800 mV were used for quantification (Sen et al., 2002).

[3] = test system: primary cardiac fibroblatsts (CF) isolated from adult mouse ventricle; assay: Cardiac fibroblast death induced by arachidonic acid + buthionine sulfoximine (phase contrast imaging); format: cell-based; details: arachidonic acid 50 microM + BSO, 250 nM tocotrienol, 24 h, 5% O2
Method: Assays were performed using primary cardiac fibroblatsts (CF) isolated from adult (5-6 week old) mouse ventricle. Cells were cultured under 5% O2 conditions. Five days after isolation cells were treated with arachidonic acid (50 microM)+buthionine sulfoximine in the presence or absence of 250 nM tocotrienol for 24h. Phase contrast imaging was performed using a Zeiss live cell imaging microscope.
Referring to FIG. 8, isolated cardiac fibroblasts cells were treated five days after isolation with arachidonic acid (AA)(50 microM)±buthionine sulfoximine (BS)) in the presence or absence of 250 nM tocotrienol (T3) for 24 hours. Phase contrast imaging was performed using a Zeiss live cell imaging microscope.

TTP knock-out mice = assay: Fertility of tocopherol transport protein (TTP) knock-out mice; details: mouse, in vivo
Source text: The uptake and transport of dietary or pharmaceutically supplemented tocopherol from the gut to various parts of the body is directed by TTP. In order to understand and distinguish the important roles of tocopherols and tocotrienols in mammals, knock out mice have been produced in which expression of TTP has been ablated. Interruption of TTP results in loss of fertility in these mice which make it impossible to breed and thus maintain the line for further study.

[4] = molecular target: T1, hydroxy-3 methylglutaryl coenzyme A reductase (Homo sapiens, UniProt P04035); details: micromolar amounts; Pearce et al.; cited from earlier work
T1 sequence (P04035 1-888): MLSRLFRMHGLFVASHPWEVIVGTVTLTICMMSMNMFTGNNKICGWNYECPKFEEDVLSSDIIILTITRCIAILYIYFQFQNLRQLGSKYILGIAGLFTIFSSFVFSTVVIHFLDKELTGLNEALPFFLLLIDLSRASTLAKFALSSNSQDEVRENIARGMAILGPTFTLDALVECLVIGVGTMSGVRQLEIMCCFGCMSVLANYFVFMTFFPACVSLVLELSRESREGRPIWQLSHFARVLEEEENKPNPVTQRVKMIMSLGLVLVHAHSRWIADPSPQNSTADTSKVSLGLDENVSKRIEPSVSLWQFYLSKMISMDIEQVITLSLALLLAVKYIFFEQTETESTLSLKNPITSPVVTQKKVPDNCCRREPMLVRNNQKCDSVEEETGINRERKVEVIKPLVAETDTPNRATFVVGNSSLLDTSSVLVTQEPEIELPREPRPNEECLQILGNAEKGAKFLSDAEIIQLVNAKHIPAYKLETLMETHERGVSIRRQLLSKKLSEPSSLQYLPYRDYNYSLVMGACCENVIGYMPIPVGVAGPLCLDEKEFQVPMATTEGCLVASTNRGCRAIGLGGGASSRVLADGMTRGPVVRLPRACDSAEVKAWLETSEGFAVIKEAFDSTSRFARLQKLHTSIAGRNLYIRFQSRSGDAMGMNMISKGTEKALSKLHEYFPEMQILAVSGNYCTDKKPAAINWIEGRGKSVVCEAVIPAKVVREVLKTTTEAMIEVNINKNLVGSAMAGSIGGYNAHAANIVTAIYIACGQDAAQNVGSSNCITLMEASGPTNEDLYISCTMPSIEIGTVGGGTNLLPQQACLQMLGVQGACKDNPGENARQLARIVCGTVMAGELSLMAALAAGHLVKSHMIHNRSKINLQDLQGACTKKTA

alphaTTP = molecular target: T2, alphaTTP (Rattus norvegicus, UniProt P41034); details: competition with alpha-[3H]tocopherol; FEBS Lett 1997; cited from earlier work
T2 sequence (P41034 1-278): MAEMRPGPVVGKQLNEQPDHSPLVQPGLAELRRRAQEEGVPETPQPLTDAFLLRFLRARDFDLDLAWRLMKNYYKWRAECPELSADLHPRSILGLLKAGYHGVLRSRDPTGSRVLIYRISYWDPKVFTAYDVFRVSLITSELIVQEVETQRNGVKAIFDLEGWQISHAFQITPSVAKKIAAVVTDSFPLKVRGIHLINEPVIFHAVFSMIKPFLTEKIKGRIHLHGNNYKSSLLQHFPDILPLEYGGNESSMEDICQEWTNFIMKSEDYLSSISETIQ

Compound | protection of primary neurons against toxicity triggered by L-homocysteic acid or BSO ([1]; L-homocysteic acid 1 mM or BSO 0.15 mM, BL15 2.5 μM 5 min before) | protection against glutamate-induced death of primary neurons ([1]; glutamate 10 mM, α-tocotrienol 100 nM or BL15 2.5 μM 5 min before) | protection against glutamate induced death of HT4 cells (HT4 neurons; glutamate 10 mM, BL15 2.5 μM 5 min before) | glutamate-induced degeneration of the neural network and neuronal growth [2] | cellular glutathione (GSH) in protected glutamate-treated primary neurons (primary neurons) | protection against glutamate-induced toxicity / loss of cell viability of HT4 (HT4 neurons; glutamate 10 mM, tocotrienol 100 nM (nM levels) 5 min before) | proliferation / growth rate of glutamate-treated HT4 cells (HT4 neurons; tocotrienol 100 nM (nM levels), cells counted 12, 24 and 36 h after glutamate) | cell death induced by AA+BSO [3] | fertility of TTP knock-out mice (TTP knock-out mice) | activity of hydroxy-3 methylglutaryl coenzyme A reductase [4] | relative affinity of alpha TTP (alphaTTP)
O=c1cc(-c2ccccc2)oc2cc(O)c(O)c(O)c12 [BL15, 5,6,7-trihydroxy-flavone, reference compound] | protected | protected neurons against glutamate challenge; also recorded: clearly protected | clearly protected | protection | loss of cellular glutathione; also recorded: lowered GSH levels |  |  |  |  |  | 
tocotrienol |  |  |  |  |  | prevented glutamate-induced toxicity | proliferate at a rate comparable to cells not treated with glutamate | completely blocked cell death | reversal of TTP-dependent infertility | suppress the activity | relatively low affinity
